Measurements from US20170258770A1, “Method for Topically Treating Actinic Keratosis on the Full Face or 250 cm2 on the Chest with Ingenol 3-(3,5-diethylisoxazole-4-carboxylate)” (LEO Laboratories Limited, priority 2014, published 2017).

Tests used:
dermal tumours = experiment: in vivo studies in mice, effects on dermal tumours; conditions: compared with ingenol mebutate
From the text: The exact mechanism of action of ingenol 3-(3,5-diethylisoxazole-4-carboxylate) continues to be investigated, but it is believed that ingenol 3-(3,5-diethylisoxazole-4-carboxylate) has a dual mechanism of action inducing cell death as well as stimulation of immune response.

actinic keratosis [1] = experiment: Part 2 open-label trial, 0.018% gel once daily for three consecutive days, full face or 250 cm^2 chest, actinic keratosis; type: in vivo, human subjects; conditions: 3 consecutive days
Experimental: Part 2 is a study of the efficacy of the 0.018% dose identified in part 1 in a three day regimen.
In contrast to other similar trials conducted, this trial allows inclusion in the trial of hypertrophic and hyperkeratotic lesion, and separately, the efficacy for these lesions are evaluated.
The outcome for Part 2 is safety and efficacy in a once daily application for three consecutive days on the face/chest. The efficacy in treating of the AK will be measured as reduction in AK count in the treated area of lesions which are not considered hyperkeratotic/hypertrophic.
The reduction in AK count will be performed at week 4 and 8 no matter the type of lesion. Also complete clearance of AKs in the treated area which are not considered hyperkeratotic/hypertrophic at week 8 will be measured.
The trial medication applied is preferably a gel. The gel formulation comprises: isopropyl alcohol, hydroxyethyl cellulose, benzyl alcohol, citric acid monohydrate, sodium citrate dehydrate and water and active compound in a 0.018% concentration. For this particular trial, the dosing is two unit dose tubes daily, each containing 0.67 g.
To qualify for part 2 of the trial, the subjects must have 5-20 clinically visible and discrete AKs within full face or 250 cm^2 area on the chest. In addition to the requirement of 5-20 clinically typical, visible and discrete AKs within the selected treatment area, subjects may also have visible and discrete hyperkeratotic/hypertrophic lesions in this area. The subjects will be treated with a dose of 0.018% as a once daily three consecutive days treatment and followed for 8 weeks.
The trial consists of an initial part, where 18 subjects will be treated on face/chest. […] As this is a safety trial, it is considered justified to conduct this clinical trial as an open-label, uncontrolled trial. An early safety and tolerability evaluation will be performed following the 3 days treatment. If safety and tolerability is found acceptable by the Early Data Review Committee, and additional 44 subjects will be enrolled in order to expand safety observations and obtain an estimate of treatment efficacy.
The patients are scheduled for 7 visits: • Visit 1: within 21 days prior to day 1 • Visit 2: day 1 (application of trial medication) • Visit 3: day 4 (application of trial medication) • Visit 4: day 8 (±2 day) • Visit 5: week 2 (±2 day) • Visit 6: week 4 (±4 day) • Visit 7: week 8 (±7 day)
LSRs are evaluated at all visits following visit 1.
LSRs are evaluated at all visits following visit 1. AK lesion counts are performed on Visit 2, 6 and 7.
At Baseline (Day 1) and Visit 7 (Week 8), the investigator will make a clinical (visual and tactile) assessment of the extent of photo-damage in the treatment area with respect to 1) fine wrinkling, 2) coarse wrinkling, 3) mottled pigmentation, 4) roughness, 5) sallowness, 6) skin laxity, and 7) telangiectasia. Severity for each of these characteristics will be on a 5-point scale: None (0), Mild (1), Moderate (2), Severe (3), Extreme (4).
At Visit 7 (Week 8) the Investigator will make an overall clinical (visual and tactile) assessment of the subject's photo-damage change from baseline in the treatment area (including an integrated assessment of fine wrinkling, coarse wrinkling, mottled pigmentation, roughness, sallowness, skin laxity, and telangiectasia based on the subject's appearance at the baseline visit).
The scoring will be on a 7-point symmetric scale: Marked improvement (+3), Moderate improvement (+2), Minor improvement (+1), No change (0), Minor worsening (−1), Moderate worsening (−2), Marked worsening (−3).
At Visit 7 (Week 8), the subjects will complete a self-assessment questionnaire evaluating the change in the 1) overall appearance of the skin and 2) overall feel of the skin after treatment. The scoring will be on a 5-point scale: Much worsened, Somewhat worsened, No change, somewhat improved, much improved. […]

actinic keratosis [2] = experiment: Part 1 dose escalation trial, once daily for two consecutive days, face/chest, actinic keratosis; type: in vivo, human subjects
From the text: Local skin reactions (LSRs) occur sometimes in the treated area. Often LSRs are quantified by a scale evaluating the following types of skin reactions: erythema, flaking/scaling, crusting, swelling, vasiculation/postulation, and erosion/ulceration which are categorized into categories 0-4 depending on the severity of the reactions.
In the trial pre-defined grades of LSRs will constitute Dose Limiting Toxicity.
Dose Limiting toxicity (DLT) is defined one or more of the following LSRs • crusting Grade 4 • Erosion/ulceration Grade 4 • vesiculation/postulation Grade 4 or
Two or more of the following five LSRs: • Erythema Grade 4 • Crusting Grade 3 • Swelling grade 4 • Erosion/ulceration Grade 3 • vesiculation/postulation Grade 3 or • other clinically relevant signs or symptoms observed, which the Investigator judges to be counted as a DLT.
Maximum tolerated dose (MTD) is declared as dose level at which less than 4 subjects out of experience a DLT of cohort of 12 subjects.
Part 1 was a dose escalation study conducted with a once daily application of trial medication for two consecutive days and continued until the MTD was identified.
Dose escalation proceeded if the safety and tolerability data of the subject up to day 8 was reviewed and considered satisfactory. The treatment consisted of once daily treatment for 2 consecutive days. Up to 5 different doses may be investigated in cohorts of 1 subject. The number of subjects in each cohort depended on the number of observed DLTs. However, the MTD was always be confirmed in a cohort of 12 subjects.
To be included in the trial, Part 1, the subjects must be at least 18 years of age.
Subjects who qualify for Part 1 of the trial must have 5 to 20 actinic keratosis on the face or chest. To be included in the trial part 2 the subjects must have 5-20 clinically typical, visible and discrete actinic keratosis on the face or chest
Part 1: Trial medication, ingenol 3-(3,5-diethylisoxazole-4-carboxylate) gel, will be applied to the treatment area once daily for two consecutive days until the maximum tolerated dose has been reached for each formulation. Up to five different doses of active compound in gel may be investigated in cohorts 12 subjects. Predefined grades of Local Skin Responses (LSRs) will constitute dose limiting toxicity (DLT). The maximum tolerated dose is defined as the highest dose level at which less than 4 out of 12 subjects experience a Dose limiting toxicity.
The doses will be administered in an escalating manner following review of safety and tolerability data performed by the dose escalation committee. Evaluation of the safety and tolerability data will be performed after Visit 5/day 8. Then subjects will be followed for 8 weeks after first application of investigational product.

[3] = at 0.018% dose, two day regimen

## CCc1noc(CC)c1C(=O)O[C@H]1C(C)=C[C@]23C(=O)[C@@H](C=C(CO)[C@@H](O)[C@]12O)[C@H]1[C@@H](C[C@H]3C)C1(C)C [ingenol 3-(3,5-diethylisoxazole-4-carboxylate)]
Dermal tumours
  efficacy in eliminating dermal tumours: more efficacious than ingenol mebutate
Actinic keratosis [1]
  cosmetic outcome of the treatment: good
  side-effects: acceptable
Actinic keratosis [1]; cosmetic outcome self-assessment
  subjects reporting improvement in appearance and feel: more than 90%
Actinic keratosis [1]; investigator assessment, fraction of patients
  patients with photo damage improved: two-thirds
Actinic keratosis [1]; rapid decline thereafter
  time at which side-effects maximize: 4 days
Actinic keratosis [1]; week 4, 63 patients
  complete clearance: 37%
  reduction in AK count: 81%
Actinic keratosis [1]; week 8 (the same as week 4)
  complete clearance: 37%
  reduction in AK count: 81%
Actinic keratosis [2]; [3]
  application site adverse events: minimal
  local skin reactions (LSRs): mild
Actinic keratosis [2]; gel, once daily for 2 consecutive days, face/chest, MTD = highest dose with DLT in less than 4 of 12 subjects
  maximum tolerated dose (MTD): 0.018%
Actinic keratosis [2]; selected dose 0.018%, two days dosing regimen
  tolerability with respect to LSRs and application site reaction: well tolerated
